These results are taken from patent US20070049518A1, “Novel method of treatment of inflammatory skin conditions” (priority 2005, published 2007).

The target in one assay is T1, staphopain B (Staphylococcus aureus, UniProt P0C1S6).
T1 construct: purchased BioCentrum Ltd
Nature of the assay: Selectivity profile, staphopain B. Format: biochemical. The conditions noted are these: read-out: inhibition at 0.1 mM, Staphopain B. The procedure: (§1) Inhibitory activity was tested in reaction mixtures (0.1 ml) containing 2% (v/v) DMSO vehicle±compound plus additions as follows. V8 protease: 90 mM MOPS (sodium) buffer pH 7.0, […] calcium chloride, 0.045% Brij 35, 10 μM Mca-Leu-Glu-Val-Asp-Gly-Trp-Lys(Dnp)-amide (Bachem) and V8 (BioCentrum Ltd; 30 ng). Staphopain A and B: 90 mM MOPS (sodium) buffer pH 7.0, 1.8 mM cysteine-HCl (pH-adjusted with NaOH), 0.045% Brij 35, 0.1 mM Z-Phe-Arg-AMC hydrochloride (Bachem) and staphopain A or B (BioCentrum Ltd; 30 ng). Human kallikrein 5: 0.1M sodium phosphate buffer pH 8.0, 0.045% Brij 35, 0.1 mM Boc-Val-Pro-Arg-AMC (Sigma) and recombinant human kallikrein 5 (R&D Systems Inc; 6 ng). Human kallikrein 7: 72 mM Tris-HCl pH 8.0, 0.033% Brij 35, 1.2 mM S-2586 (Chromogenix Instrumentation Laboratory SpA) and recombinant human kallikrein 7 (R&D Systems Inc; 0.6 μg) that had been thermolysin-activated according to the manufacturer's instructions. Human angiotensin-converting enzyme (ACE): 45 mM MES (sodium) buffer pH 6.5, 0.045% Brij 35, 10 μM Mca-[…]Dnp)-OH(R&D Systems Inc) and recombinant human ACE (R&D Systems Inc; 1.3 ng). Human cathepsin D: 0.1M sodium acetate buffer pH 3.5, 0.2M sodium chloride, 0.045% Brij 35, 10 μM Mca-Pro-Leu-Gly-Leu-Dap(Dnp)-Ala-Arg-amide (Bachem) and recombinant human cathepsin D (R&D Systems Inc; 8 ng) activated according to the manufacturer's instructions. […]

The next assay deals with T2, human MMP-9 (Homo sapiens, UniProt P14780).
T2 construct: purchased Calbiochem
T2 sequence (P14780 94-707): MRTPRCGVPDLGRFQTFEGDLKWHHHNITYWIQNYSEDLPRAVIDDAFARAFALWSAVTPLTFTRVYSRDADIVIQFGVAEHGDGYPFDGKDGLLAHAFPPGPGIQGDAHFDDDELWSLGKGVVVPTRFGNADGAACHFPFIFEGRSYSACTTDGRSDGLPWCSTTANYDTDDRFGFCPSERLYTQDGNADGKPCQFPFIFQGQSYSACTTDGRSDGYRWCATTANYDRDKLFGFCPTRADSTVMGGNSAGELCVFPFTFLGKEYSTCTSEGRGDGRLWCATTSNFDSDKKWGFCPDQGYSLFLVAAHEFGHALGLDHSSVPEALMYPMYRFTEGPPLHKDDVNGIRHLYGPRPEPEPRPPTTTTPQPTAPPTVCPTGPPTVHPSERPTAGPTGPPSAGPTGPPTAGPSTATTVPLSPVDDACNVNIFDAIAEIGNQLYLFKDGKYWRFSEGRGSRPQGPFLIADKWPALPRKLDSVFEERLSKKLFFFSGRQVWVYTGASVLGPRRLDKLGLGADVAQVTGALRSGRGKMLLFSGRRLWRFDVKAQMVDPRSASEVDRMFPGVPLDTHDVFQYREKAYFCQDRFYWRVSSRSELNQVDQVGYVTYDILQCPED
Nature of the assay: MMP enzyme inhibition assay, MMP-9. In kind it is biochemical. The conditions noted are these: pH 7.5, 37° C., 1 hour.

Assay [1] has as its system protease activity in skin wash samples from patients with acute AD. As to the kind of experiment: Zymographic analysis of skin wash samples. Conditions: 50 μM; gelatin zymogram gel; 6 samples acute AD. Format: biochemical, human. The procedure: A method has been developed to evaluate protease activity in skin washings. Skin washings from patients with acute eczema may be obtained by aspirating 0.5 ml sterile physiological saline over the skin surface using a sterile, disposable plastic Pasteur pipette The skin area (˜1 cm^2) is defined by a sterile open-ended plastic cylinder. Samples were transferred to 0.05 ml 0.55 M MOPS buffer pH 7.0, 55 mM calcium chloride and 0.2% Brij 35, mixed, centrifuged to remove debris and frozen at −70° C. pending analysis.
Zymographic analysis of the protease content of the samples may be done by mixing with 0.2 volume 0.2M Tris-HCl pH 6.8 containing 37.5% (v/v) glycerol and 2.5% sodium dodecylsulphate followed by electrophoresis through a gelatin zymogram gel (Invitrogen Corporation) according to the manufacturer's instructions. Gels were washed in 2.5% (w/v) Triton X-100 in 25 mM MOPS buffer pH 7 with or without compound 11 (50 μM) and developed overnight at 37° C. in 0.1M MOPS buffer pH 7 containing 5 mM calcium chloride with or without compound 11 (50 μM). Zones of clearing due to proteolytic activity may be identified by staining with Coomassie Brilliant Blue R followed by destaining in 40% (v/v) methanol/10% (v/v) acetic acid. […]

The next assay deals with T3, human MMP-2 (Homo sapiens, UniProt P08253).
T3 construct: purchased Calbiochem
T3 sequence (P08253 110-660): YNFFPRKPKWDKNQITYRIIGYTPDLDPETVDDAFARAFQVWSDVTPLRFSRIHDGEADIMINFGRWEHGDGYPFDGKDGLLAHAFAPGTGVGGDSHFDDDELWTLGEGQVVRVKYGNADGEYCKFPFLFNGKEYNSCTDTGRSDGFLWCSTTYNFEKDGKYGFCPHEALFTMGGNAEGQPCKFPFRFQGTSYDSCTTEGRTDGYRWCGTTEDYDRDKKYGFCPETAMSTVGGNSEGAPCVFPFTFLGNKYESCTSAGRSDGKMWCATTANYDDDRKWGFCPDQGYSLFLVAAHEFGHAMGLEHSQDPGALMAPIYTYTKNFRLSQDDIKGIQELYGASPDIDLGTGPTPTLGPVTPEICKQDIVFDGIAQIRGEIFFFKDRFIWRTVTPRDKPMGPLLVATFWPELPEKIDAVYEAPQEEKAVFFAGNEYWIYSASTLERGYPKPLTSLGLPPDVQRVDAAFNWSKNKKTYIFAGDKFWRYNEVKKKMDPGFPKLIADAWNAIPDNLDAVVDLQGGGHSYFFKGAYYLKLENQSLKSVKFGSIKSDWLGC
As to the kind of experiment: MMP enzyme inhibition assay, MMP-2. In kind it is biochemical. Conditions: pH 7.5, 37° C., 1 hour.

The target in assay [2] is T4, purified aureolysin type I (Staphylococcus aureus, UniProt P81177).
T4 construct: purchased BioCentrum Ltd
T4 sequence (P81177 209-509): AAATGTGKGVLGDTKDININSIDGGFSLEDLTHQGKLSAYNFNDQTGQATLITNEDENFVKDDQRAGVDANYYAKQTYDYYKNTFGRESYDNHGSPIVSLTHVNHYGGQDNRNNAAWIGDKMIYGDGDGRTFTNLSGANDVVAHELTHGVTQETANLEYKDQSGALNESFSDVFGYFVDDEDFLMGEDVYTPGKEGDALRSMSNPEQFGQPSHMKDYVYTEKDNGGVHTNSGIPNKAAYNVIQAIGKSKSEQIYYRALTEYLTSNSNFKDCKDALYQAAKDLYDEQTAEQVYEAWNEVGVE
Nature of the assay: biochemical.

Another assay deals with aureolysin (Staphylococcus aureus, UniProt P81177). As to the kind of experiment: Inhibition of aureolysin-mediated pro-uPA activation. The conditions noted are these: for Relative activity: Aureolysin 1 μg/ml, pH 5.6.
Chain of aureolysin (P81177 209-509): as above
Assay [3] addresses T5, recombinant human kallikrein 5 (Homo sapiens, UniProt Q9Y337).
T5 construct: purchased R&D Systems Inc
Nature of the assay: Selectivity profile, kallikrein 5. Format: biochemical. Conditions: read-out: inhibition at 0.1 mM, Kallikrein 5. How it is done: as §1

Assay [4] has as its target T6, recombinant human kallikrein 7 (Homo sapiens, UniProt P49862).
T6 construct: purchased R&D Systems Inc
Nature of the assay: Selectivity profile, kallikrein 7. Conditions: read-out: inhibition at 0.1 mM, Kallikrein 7. In kind it is biochemical. The procedure: as §1

T1 sequence (P0C1S6 220-393): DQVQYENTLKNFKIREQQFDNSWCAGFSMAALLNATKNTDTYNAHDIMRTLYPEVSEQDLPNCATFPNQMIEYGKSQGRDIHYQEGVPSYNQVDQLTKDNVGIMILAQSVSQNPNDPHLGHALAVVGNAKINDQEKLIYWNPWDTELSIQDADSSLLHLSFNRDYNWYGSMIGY
T5 sequence (Q9Y337 23-293): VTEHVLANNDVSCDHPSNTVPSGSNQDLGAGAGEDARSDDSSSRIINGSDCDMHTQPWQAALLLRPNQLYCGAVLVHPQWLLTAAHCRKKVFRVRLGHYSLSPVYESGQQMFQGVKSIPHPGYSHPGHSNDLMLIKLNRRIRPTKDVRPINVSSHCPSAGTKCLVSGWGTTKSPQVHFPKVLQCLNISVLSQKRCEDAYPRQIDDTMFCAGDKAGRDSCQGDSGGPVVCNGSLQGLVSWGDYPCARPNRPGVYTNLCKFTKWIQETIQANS
T6 sequence (P49862 30-253): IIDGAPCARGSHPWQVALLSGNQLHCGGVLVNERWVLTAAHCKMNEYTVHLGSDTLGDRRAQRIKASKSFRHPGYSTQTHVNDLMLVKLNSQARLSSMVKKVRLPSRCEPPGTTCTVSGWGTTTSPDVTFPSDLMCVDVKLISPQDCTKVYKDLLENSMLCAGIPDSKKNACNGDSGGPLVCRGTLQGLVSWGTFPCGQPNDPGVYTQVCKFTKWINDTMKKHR

A word on the inhibition: it is the share of the control response that was lost under treatment. One may read the IC50 as the concentration needed to halve the response being measured. Regarding `CNC(=O)[C@@H](NC(=O)[C@@H](CC(=O)NO)CC(C)C)C(C)(C)C` [Compound 11, (R)—N1-((S)-3,3-dimethyl-1-(methylamino)-1-oxobutan-2-yl)-N4-hydroxy-2-isobutylsuccinamide], the inhibition at 100 µM on staphopain B is 11%. For the same molecule, the IC50 against human MMP-9 came out at 0.0036 µM; at human MMP-2, 0.0019 µM; in assay [2], 1.3 µM. Further, in assay [1], the “inhibition of protease activity in skin wash samples, zymography (in words)” value is “significant inhibition of protease activity”.
Turning to `CNC(=O)[C@@H](NC(=O)[C@H](CC(=O)NO)CC(C)C)C(C)(C)C` [Compound 12, (S)—N1-((S)-3,3-dimethyl-1-(methylamino)-1-oxobutan-2-yl)-N4-hydroxy-2-isobutylsuccinamide], the IC50 against aureolysin is 2.4 µM; at human MMP-9 it was 4.6 µM; on human MMP-2, 2.7 µM; in assay [2], 1.3 µM. Also, the figures for the Relative activity on aureolysin (Compound 12 25 μM) and at aureolysin (Compound 12 317 μM) were 37% and 8%, respectively. Further, the inhibition at 100 µM at staphopain B came out at 10%; in assay [3], 0%; in assay [4] it was 0%.
